Columns and labels:
Assay type in all cases: cell-based, human
HT1080 fibrosarcoma = assay: Cell proliferation assay, HT1080; conditions: normal conditions; same concentrations
Method: (§1) A. Effect of irestatin 9389 on PERK and ATF6 pathways. HT1080 cells were treated with vehicle alone (lanes 1-4) or 2.5 μM irestatin 9389 (lanes 5-8) and cultured under aerobic conditions for 18 hours (N) or shifted to hypoxia for the indicated times. Protein lysates were analyzed by Western blot analysis using antisera specific for ATF6 (top), CHOP/GADD153 (middle) or actin (bottom). Arrow indicates the cleaved, transcriptionally active form of ATF6. B. Cleavage of caspase-3 in irestatin-treated cells under hypoxia. HT1080 cells were cultured in normoxia (N) or under hypoxia for 36 hours (H 36) in absence or presence of irestatin 9389 (2.5 μM). Arrows indicate proteolytically cleaved caspase-3. C. Colony formation assay. HT1080 cells were treated as in B under normoxia (N) or hypoxia for 48 hours (H 48). Cells were harvested, counted, and allowed to grow under normal culture conditions for 11-12 days. Colonies were visualized with crystal violet staining. D. Quantification of clonogenic survival assay. Values represent the mean+/−SEM from at least 4 independent experiments. E. TUNEL staining of cells treated as in C. F. Quantification of TUNEL-positive cells. Values represent the mean+/− SEM from at least 3 experiments. […] Cells were harvested at the indicated times and counted by hemocytometer. Values represent the mean calculated from triplicate experiments+/−SEM.

ATF6 = assay: Western blot of ATF6 cleavage, hypoxic HT1080 cells; conditions: 2.5 μM
Method: Cells (2×10^6) were cultured in 10-cm dishes, collected using a cell scraper at 4° C., and lysed by addition of 150 μl cell lysis buffer [50 mM Tris pH 7.4, 150 mM NaCl, 10% glycerol, 0.5% Triton X-100. 0.5% NP-40, 2 mM Na3VO4, 20 mM beta-glycerophosphate, 10 mM NaF, 1 mM DTT, 1 mM PMSF). Lysates were centrifuged for 5 min at 10,000×g, and proteins (˜40 μg) were resolved by SDS-PAGE followed by semi-dry transfer to nitrocellulose membranes. Membranes were blocked in TBS-5% milk supplemented with 0.1% Tween-20. The blots were then probed overnight with relevant antibodies, washed, and incubated for 2 hours with species-specific secondary antibodies conjugated to horseradish peroxidase. After washing in block solution, immunoreactive material was detected by enhanced chemiluminescence (SuperSignal West Dura Extended, Pierce, Inc., Rockville, Ill.).
A. Effect of irestatin 9389 on PERK and ATF6 pathways. […] Protein lysates were analyzed by Western blot analysis using antisera specific for ATF6 (top), CHOP/GADD153 (middle) or actin (bottom). […] Cells were harvested, counted, and allowed to grow under normal culture conditions for 11-12 days. […] D. Quantification of clonogenic survival assay. […] F. Quantification of TUNEL-positive cells. […] Cells were harvested at the indicated times and counted by hemocytometer. Values represent the mean calculated from triplicate experiments+/−SEM. […]

HT1080 cells = assay: TUNEL staining, HT1080 cells under hypoxia; conditions: 2.5 μM; 48 hours of hypoxia
Method: as §1, with “experiments+/−SEM. […]” for “experiments+/−SEM.”

SMILES: Cc1csc(NC(=O)CSc2nc3c(c(C(F)(F)F)c2C#N)CCC3)n1 [Compound 9389]
- growth rate of HT1080 cells (HT1080 fibrosarcoma): negligible effect on the growth rate
- proteolytic cleavage of ATF6 into active 50 kDa form (ATF6): significantly increased the proteolytic cleavage of ATF6
- TUNEL-positive cells (HT1080 cells): 35%

Reference: patent US20130150399A1, “INHIBITORS OF THE UNFOLDED PROTEIN RESPONSE AND METHODS FOR THEIR USE” (The Board of Trustees of the Leland Stanford Junior …, priority 2006, published 2013)
